Assay results as given in patent US20230017045A1, “PYRIDINE AND PYRIMIDINE CARBOXYLATE HERBICIDES AND METHODS OF USE THEREOF” (Dow AgroSciences LLC, priority 2017, published 2023).
Where two headings read alike, the source gives them in different places.

System: test plant species
Experiment: Post-emergent herbicidal activity test (greenhouse, foliar spray, visual growth reduction)
Type: in vivo
Conditions: post-emergence, 336 h, 140 g ai/ha
Experimental: Post-emergent Test: Seeds or nutlets of the desired test plant species were planted in Sun Gro Metro-Mix® 360 planting mixture, which typically has a pH of 6.0 to 6.8 and an organic matter content of about 30 percent, in plastic pots with a surface area of 64 square centimeters. In some aspects, to ensure good germination and healthy plants, a fungicide treatment and/or other chemical or physical treatment was applied. The plants were grown for 7-21 d in a greenhouse with an approximate 15 h photoperiod which was maintained at 23-29° C. during the day and 22-28° C. during the night. Nutrients and water were added on a regular basis and supplemental lighting was provided with overhead metal halide 1000-Watt lamps as necessary. Plants were used for testing when they reached the first or second true leaf stage. A weighed amount, determined by the highest rate to be tested, of each test compound was placed in a 25 mL glass vial and was dissolved in 4 mL of a 97:3 v/v mixture of acetone and DMSO to obtain concentrated stock solutions. […] The concentrated stock solutions obtained were diluted with 20 mL of an aqueous mixture containing acetone, water, isopropyl alcohol, DMSO, […] crop oil concentrate, and X-77 surfactant in a 48.5:39:10:1.5:1.0:0.02 v/v ratio to obtain spray solutions containing the application rate. Compound requirements are based upon a 12 mL application volume at a rate of 187 liters per hectare (L/ha). Formulated compounds were applied to the plant material with an overhead Mandel track sprayer equipped with […] nozzles calibrated to deliver 187 L/ha over an application area of 0.64 square meters at a spray height of 18 inches (43 cm) above the average plant canopy height. Control plants were sprayed in the same manner with the solvent blank. The treated plants and control plants were placed in a greenhouse as described above and watered by subirrigation to prevent wash-off of the test compounds. After 14 d, the condition of the test plants as compared with that of the nontreated and control plants was determined visually and scored on a scale of 0 to 100 percent where 0 corresponds to no injury and 100 corresponds to complete control. In the reporting of the results, Table A: Percent Growth Reduction Conversion Table was used.

[1] = ALOMY: blackgrass (Alopecurus myosuroides), 14 days after application, read-out: Visual Growth Reduction (%) 14 Days After Application, ALOMY
[2] = AMARE: redroot pigweed (Amaranthus retroflexus), 14 days after application, read-out: Visual Growth Reduction (%) 14 Days After Application, AMARE
[3] = AVEFA: wild oat (Avena fatua), 14 days after application, read-out: Visual Growth Reduction (%) 14 Days After Application, AVEFA
[4] = CHEAL: lambsquarters (Chenopodium album), 14 days after application, read-out: Visual Growth Reduction (%) 14 Days After Application, CHEAL
[5] = CIRAR: canada thistle (Cirsium arvense), 14 days after application, read-out: Visual Growth Reduction (%) 14 Days After Application, CIRAR
[6] = CYPES: yellow nutsedge (Cyperus esculentus), 14 days after application, read-out: Visual Growth Reduction (%) 14 Days After Application, CYPES
[7] = DIGSA: crabgrass (Digitaria sanguinalis), 14 days after application, read-out: Visual Growth Reduction (%) 14 Days After Application, DIGSA
[8] = ECHCG: barnyardgrass (Echinochloa crus-galli), 14 days after application, read-out: Visual Growth Reduction (%) 14 Days After Application, ECHCG
[9] = IPOHE: ivy-leaf morning glory (Ipomoea hederacea), 14 days after application, read-out: Visual Growth Reduction (%) 14 Days After Application, IPOHE
[10] = KCHSC: kochia (Bassia scoparia), 14 days after application, read-out: Visual Growth Reduction (%) 14 Days After Application, KCHSC
[11] = ORYSA: rice (Oryza sativa), 14 days after application, read-out: Visual Growth Reduction (%) 14 Days After Application, ORYSA
[12] = SETFA: giant foxtail (Setaria faberi), 14 days after application, read-out: Visual Growth Reduction (%) 14 Days After Application, SETFA
[13] = SORVU: grain sorghum (Sorghum vulgare), 14 days after application, read-out: Visual Growth Reduction (%) 14 Days After Application, SORVU
[14] = STEME: common chickweed (Stellaria media), 14 days after application, read-out: Visual Growth Reduction (%) 14 Days After Application, STEME
[15] = TRZAS: wheat, spring (Triticum aestivum), 14 days after application, read-out: Visual Growth Reduction (%) 14 Days After Application, TRZAS

| Compound | pest or weed control at 140 g/ha [1] [%] | pest or weed control at 140 g/ha [2] [%] | pest or weed control at 140 g/ha [3] [%] | pest or weed control at 140 g/ha [4] [%] | pest or weed control at 140 g/ha [5] [%] | pest or weed control at 140 g/ha [6] [%] | pest or weed control at 140 g/ha [7] [%] | pest or weed control at 140 g/ha [8] [%] | pest or weed control at 140 g/ha [9] [%] | pest or weed control at 140 g/ha [10] [%] | pest or weed control at 140 g/ha [11] [%] | pest or weed control at 140 g/ha [12] [%] | pest or weed control at 140 g/ha [13] [%] | pest or weed control at 140 g/ha [14] [%] | pest or weed control at 140 g/ha [15] [%] | also measured |
| --- | --- | --- | --- | --- | --- | --- | --- | --- | --- | --- | --- | --- | --- | --- | --- | --- |
| O=C(OCc1ccc(Cl)cc1Cl)c1nc(-c2ccc(C(F)(F)F)cc2Cl)ccc1Cl [F116, 2,4-dichlorobenzyl 3-chloro-6-(2-chloro-4-(trifluoromethyl)phenyl)picolinate] | 30 to 44 | 95 to 100 | 45 to 59 | 85 to 94 | 85 to 94 | 0 to 29 | 85 to 94 | 75 to 84 | 85 to 94 | 75 to 84 | 0 to 29 | 60 to 74 | 85 to 94 | 0 to 29 | 60 to 74 | – |
| C#Cc1cc(-c2ccc(C(F)(F)F)cc2Cl)nc(C(=O)OC)c1Cl [F40, methyl 3-chloro-6-(2-chloro-4-(trifluoromethyl)phenyl)-4-ethynylpicolinate] | 0 to 29 | 0 to 29 | 0 to 29 | 0 to 29 | 0 to 29 | 0 to 29 | 0 to 29 | 0 to 29 | 30 to 44 | 0 to 29 | 0 to 29 | 0 to 29 | 60 to 74 | 0 to 29 | 0 to 29 | – |
| COC(=O)c1nc(-c2ccc(C(F)(F)F)cc2Cl)ccc1F [F113, methyl 6-(2-chloro-4-(trifluoromethyl)phenyl)-3-fluoropicolinate] | 0 to 29 | 95 to 100 | 45 to 59 | 95 to 100 | 85 to 94 | 0 to 29 | 85 to 94 | 75 to 84 | 95 to 100 | 60 to 74 | 30 to 44 | 75 to 84 | 85 to 94 | 0 to 29 | 0 to 29 | – |
| O=C(OCc1cccnc1)c1nc(-c2ccc(C(F)(F)F)cc2Cl)ccc1Cl [F79, Pyridin-3-ylmethyl 3-chloro-6-(2-chloro-4-(trifluoromethyl)phenyl)picolinate] | 60 to 74 | 95 to 100 | 75 to 84 | 95 to 100 | 85 to 94 | 0 to 29 | 95 to 100 | 95 to 100 | 95 to 100 | 95 to 100 | 30 to 44 | 95 to 100 | 95 to 100 | 0 to 29 | 75 to 84 | – |
| COC(=O)c1nc(-c2ccc(N)cc2Cl)c(F)cc1Cl [F358, Methyl 6-(4-amino-2-chlorophenyl)-3-chloro-5-fluoropicolinate] | – | – | – | – | – | – | – | 0 to 29 | 0 to 29 | 0 to 29 | 0 to 29 | 0 to 29 | 0 to 29 | 0 to 29 | 0 to 29 | pest or weed control at 140 g/ha (blackgrass (Alopecurus myosuroides), 14 Days After Application, read-out: Visual Growth Reduction (%) ALOMY): 0 to 29%; pest or weed control at 140 g/ha (canada thistle (Cirsium arvense), 14 Days After Application, read-out: Visual Growth Reduction (%) CIRAR): 0 to 29%; pest or weed control at 140 g/ha (crabgrass (Digitaria sanguinalis), 14 Days After Application, read-out: Visual Growth Reduction (%) DIGSA): 0 to 29%; pest or weed control at 140 g/ha (lambsquarters (Chenopodium album), 14 Days After Application, read-out: Visual Growth Reduction (%) CHEAL): 0 to 29%; pest or weed control at 140 g/ha (redroot pigweed (Amaranthus retroflexus), 14 Days After Application, read-out: Visual Growth Reduction (%) AMARE): 0 to 29%; pest or weed control at 140 g/ha (wild oat (Avena fatua), 14 Days After Application, read-out: Visual Growth Reduction (%) AVEFA): 0 to 29%; pest or weed control at 140 g/ha (yellow nutsedge (Cyperus esculentus), 14 Days After Application, read-out: Visual Growth Reduction (%) CYPES): 0 to 29% |
| COC(=O)c1nc(-c2ccc(C(F)(F)F)cc2OC)ccc1Cl [F28, Methyl 3-chloro-6-(2-methoxy-4-(trifluoromethyl)phenyl)picolinate] | 0 to 29 | 60 to 74 | 0 to 29 | 60 to 74 | 75 to 84 | 0 to 29 | 45 to 59 | 0 to 29 | 95 to 100 | 30 to 44 | 0 to 29 | 30 to 44 | 75 to 84 | 0 to 29 | 0 to 29 | – |
| C#Cc1ccc(-c2ccc(Cl)c(C(=O)OC)n2)c(Cl)c1 [F18, Methyl 3-chloro-6-(2-chloro-4-ethynylphenyl) picolinate] | 0 to 29 | 0 to 29 | 0 to 29 | 0 to 29 | 0 to 29 | 0 to 29 | 0 to 29 | – | – | – | – | – | – | – | – | pest or weed control at 140 g/ha (barnyardgrass (Echinochloa crus-galli), 14 Days After Application, read-out: Visual Growth Reduction (%) ECHCG): 0 to 29%; pest or weed control at 140 g/ha (common chickweed (Stellaria media), 14 Days After Application, read-out: Visual Growth Reduction (%) STEME): 0 to 29%; pest or weed control at 140 g/ha (giant foxtail (Setaria faberi), 14 Days After Application, read-out: Visual Growth Reduction (%) SETFA): 0 to 29%; pest or weed control at 140 g/ha (ivy-leaf morning glory (Ipomoea hederacea), 14 Days After Application, read-out: Visual Growth Reduction (%) IPOHE): 0 to 29%; pest or weed control at 140 g/ha (johnsongrass (Sorghum vulgare), 14 Days After Application, read-out: Visual Growth Reduction (%) SORVU): 0 to 29%; pest or weed control at 140 g/ha (kochia (Bassia scoparia), 14 Days After Application, read-out: Visual Growth Reduction (%) KCHSC): 0 to 29%; pest or weed control at 140 g/ha (rice (Oryza sativa), 14 Days After Application, read-out: Visual Growth Reduction (%) ORYSA): 0 to 29%; pest or weed control at 140 g/ha (wheat, spring (Triticum aestivum), 14 Days After Application, read-out: Visual Growth Reduction (%) TRZAS): 0 to 29% |
